Laboratory results published in patent US20230210984A1, “ADOPTIVE IMMUNOTHERAPY” (The Council of the Queensland Institute of Medical Research, priority 2019, published 2023).

Assays:
[1] = tested on: SNU719 and C666.1 cells; test: Xcellegence cell growth curve (Example 3); format: cell-based; conditions: dual combination with HLA matched T cells 25:1 vs individual treatment, selumatinib 1 μM, JQ1 2.5 μM
Method: FIG. 11: Impact of dual combination of MEK1/2 inhibitor and HLA matched allogeneic EBV specific T cells. (A) Cell growth curve highlight the rate of cellular proliferation of SNU719 (upper panel) and C666.1 (lower panel) observed in the presence of HLA-matched EBV specific T cells (effector-to-target ratio of 25:1) and selumatinib (1 μM) individually and in combination, measured using Xcellegence. The effect of individual and dual combination on (B) cell proliferation based on Ki67 and (C) cell death based on active Caspase-3 of SNU719 expression (upper panel) and C666.1 (lower panel), performed using flow cytometry. The data are represented as the mean±SD from three independent experiments. P-values were calculated using one-way ANOVA: ns=not significant, *p<0.05, **p<0.01, ***p<0.001 and ****p<0.0001.
FIG. 15: Impact of dual combination of JQ1 inhibitor and HLA matched allogeneic EBV-specific T cells. The cell viability measured by MTS assay highlighting the impact of a HLA-matched EBV specific T cells at the effector-to-target ratio of 25:1 and JQ1 (2.5 μM) in suppressing cellular growth individually and in combination after 48 hrs of incubation with indicated (A) gastric (SNU719, YCCLE1 (upper panel)) and nasopharyngeal cancer cells (C17, C666.1 (lower panel)). […] P-values were calculated using one-way ANOVA: ns=not significant, *p<0.05, **p<0.01, ***p<0.001 and ****p<0.0001. […]

[2] = tested on: SNU719 and C666.1 cells; test: MTS cell viability with HLA-mismatched versus HLA-matched T cells and inhibitors; format: cell-based; conditions: for effect of HLA-matched vs HLA-mismatched T cells in presence of inhibitor: MEK1/2 inhibitors 1 μM, JQ1 2.5 μM, T cells 25:1; for cell viability: 48 hrs
Method: FIG. 12: Combination of MEK1/2 inhibitors with HLA mismatched allogeneic-specific T cells. […] The data are represented as the mean±SD from three independent experiments. P-values were calculated using one-way ANOVA: ns=not significant, *=p<0.05, **=p<0.01, ***=p<0.001 and ****=p<0.0001.
FIG. 16: Combination of JQ1 inhibitors with HLA mismatched all T cells. […] The data are represented as the mean±SD from three independent experiments. P-values were calculated using one-way ANOVA: ns=not significant, *=p<0.05, **=p<0.01, ***=p<0.001 and ****=p<0.0001.
Next, we wanted to determine the specificity of the combination and as such we challenged SNU719 and C666.1 cells with HLA-mismatched allogeneic T cells alongside MEK1/2 inhibitors (both selumetanib and trematinib), individually and in combination.
Next, we wanted to determine the specificity of the combination and as such we challenged SNU719 and C666.1 cells with HLA-mismatch allogeneic T cells alongside JQ1 inhibitor individually and in combination.

[3] = combination with HLA-mismatch allogeneic T cells 25:1 vs DMSO treated control
[4] = combination with HLA-mismatch allogeneic T cells 25:1 vs inhibitor alone

SMILES	rate of cell death (Xcellegence) [1]	effect of HLA-matched vs HLA-mismatched T cells in presence of inhibitor [2]	cell viability [2, 3]	cell viability [2, 4]
Cn1cnc2c(F)c(Nc3ccc(Br)cc3Cl)c(C(=O)NOCCO)cc21 [selumetanib]	faster cell death	significantly amplified	significant reduction in cell viability	no significant reduction in cell viability
Cc1sc2c(c1C)C(c1ccc(Cl)cc1)=N[C@@H](CC(=O)OC(C)(C)C)c1nnc(C)n1-2 [JQ1]	faster cell death	significantly amplified	significant reduction in cell viability	no significant reduction in cell viability
